Test results from patent US20230279372A1, “METHODS TO CONTROL LIPOKINE CONCENTRATIONS AND USES THEREOF” (Ohio State Innovation Foundation, priority 2020, published 2023).

How the values were obtained:
[1] = test system: Wild-type C57BL/6 male mice; assay: Acute injection, in vivo cardiac hemodynamics (pressure-volume analysis) in wild-type mice; conditions: acute injection via femoral vein, 1.5 μg/kg; compared to mice injected with saline
From the text: (§1) Cardiac pressure-volume analysis. Hemodynamic, systolic, and diastolic measurements performed as previously done. Briefly, mice were anesthetized with 1% isoflurane and a 1.4 F Millar catheter was advanced from the carotid artery into the left ventricle. LV pressure-volume dynamics were simultaneously measured over a wide range of heart rates (240-600 bpm). For the TNT experiments, since there were different baseline heart rates, data was normalized to the lowest heart rate. For the acute injection experiments, 12,13-diHOME, 9,10-diHOME, or 9-HODE were infused through the femoral vein (all at 1.5 μg/kg). All pressure-volume loop parameters were calculated using PV loop analysis software module for Lab Chart on ADInstruments.
Both +BAT and exercise improved cardiac function in mice and increased circulating 12,13-diHOME. To determine if 12,13-diHOME was responsible for the improved cardiac function in +BAT and exercise-trained mice, mice were acutely injected with 12,13-diHOME and in vivo cardiac hemodynamics were measured. Acute treatment of 12,13-diHOME improved systolic function (FIG. 3A; FIG. 8A) and diastolic function (FIG. 3B; FIG. 8B) compared to mice injected with saline. There was no effect of 9,10-diHOME or 9-HODE to alter systolic (FIG. 3A; FIG. 8A) or diastolic function (FIG. 3B; FIG. 8B).

NOS1^−/− mice = assay: Acute injection of 12,13-diHOME, in vivo cardiac hemodynamics in NOS1−/− mice
From the text: as §1
Next, the mechanism through which 12,13-diHOME modulates cardiomyocyte function and respiration was investigated. It was shown that nitric oxide (NO) production via NO synthase type 1 (NOS1) is essential for the beneficial effects of exercise to the heart. Since +BAT had similar effects on the heart as exercise, 12,13-diHOME can function through a similar mechanism. Mice deficient in NOS1 (NOS1^−/−) were acutely injected with 12,13-diHOME and in vivo cardiac hemodynamics were measured. […] In addition, 12,13-diHOME had no effect on NOS1^−/− cardiomyocyte peak shortening, Ca^2+ transients, or kinetics (FIGS. 5C-5F).

isolated cardiomyocytes [2] = assay: Cardiomyocyte sarcomere function and calcium transient, wild-type cardiomyocytes; type: cell-based, mice; conditions: acute superfusion of 10 μM; vs vehicle
Protocol: (§2) Measurements of Cardiomyocyte Sarcomere Function and Calcium Transient. Cardiomyocytes were isolated from wild-type C57BL/6 male mice (Charles River) or NOS1^−/− mice (B6; 129S4-Nos1^tm1Plh/J; stock no. 002633; Jackson Labs). Unloaded cardiomyocyte function (sarcomere shortening, kinetics and Ca^2+ transients) were measured as previously performed. In brief, hearts were rapidly excised and cannulated on a constant-flow Langendorff perfusion apparatus, and perfused via the aorta at 37° C. with buffer containing (in mM) 113 NaCl, 4.7 KCl, 0.6 KH2PO4, 0.6 Na2HPO4, 1.2 MgSO4, 12.4 BMD, 12 NaHCO3, 10 KHCO3, 10 HEPES 1M, and 30 Taurine, followed by digestion with liberase enzyme (0.25 mg/ml). After perfusion and digestion ventricles were removed and minced (under sterile conditions), filtered, and equilibrated with 1 mM CaCl2 and FBS at room temperature. Cardiomyocytes were plated on laminin-coated glass slides and placed on the stage of an inverted Olympus IX-71 microscope and superfused (˜1 ml/min at 30° C.) with contractile buffer containing (in mM, pH 7.4) 4 KCl, 131 NaCl, 1 MgCl2, 10 HEPES, 1 CaCl2), and 10 glucose. The cells were visualized using a 40× objective and field-stimulated at 1 Hz for 3 ms using a Myopacer Field-Stimulator system. Sarcomere length, time to contraction/relaxation and contraction/relaxation kinetics will were recorded using the IonOptix video imaging system and a Myocam-S Digital charge-coupled device camera. Changes in intracellular Ca^2+ levels were monitored using (0.5 μM) Fura-2 dual-excitation (360/380 nm) single emission (510 nm) ratiometric imaging. Measurements were taken at baseline and with acute superfusion of 10 μM 12,13-diHOME.

NOS1^−/− cardiomyocyte = assay: Cardiomyocyte sarcomere function and calcium transient, NOS1−/− cardiomyocytes; type: cell-based, mice; conditions: vs PBS
Protocol: as §2

[3] = test system: cardiomyocytes constitutively expressing luciferase; assay: Cardiomyocyte fatty acid uptake (FFA-SS-Luc); type: cell-based, mice; conditions: 10 μM, 10 μM FFA-SS-Luc, after 30 min of incubation; vs vehicle
Protocol: Cardiomyocyte Fatty Acid Uptake. Cardiomyocytes were isolated from 12-24 week old male LucTg (FVB-Tg(CAG-luc-GFP)L2G85Chco/J; stock no. 008450; Jackson Labs) chow-fed mice. Isolated cardiomyocytes (50,000 cells per well) were seeded onto laminin-coated 12-well plates according to standard protocols in FBS-free media for one hour. After one hour of serum-starve, 10 μm FFA-SS-Luc (Intrace Medical) conjugated probe was added to each well with or without 10 μM 12,13-diHOME directly before imaging using the IVIS Spectrum for […] optical imaging using sequential 3 min exposures for 30 min. Data were analyzed using Living Image Software, and movies were assembled from individual images using ImageJ.
Previous studies have indicated a role for 12,13-diHOME to increase fatty acid uptake. To test whether 12,13-diHOME increases fatty acid uptake in cardiomyocytes, cardiomyocytes constitutively expressing luciferase in vitro were isolated. Cells were treated with FFA-SS Luc, a fatty acid conjugated to luciferin, in the presence of 12,13-diHOME or a vehicle control.

isolated cardiomyocytes [4] = assay: Seahorse bioanalyzer respiration, wild-type cardiomyocytes; type: cell-based, mice
Protocol: (§3) Seahorse bioanalyzer. Cardiomyocytes were isolated from 12-24 week old male C57BL/6 male (Charles river) or NOS1^−/− mice (B6; 129S4-Nos1^tm1Pth/J; stock no. 002633; Jackson Labs), chow fed mice. Isolated cardiomyocytes (25,000 per well) were seeded onto laminin-coated Seahorse Plates (Agilent) according to standard protocols. Cells were treated for 1 h with 10 μM 12,13-diHOME or were untreated. The oxygen-consumption rates (OCR; indicating mitochondrial respiration) and extracellular acidification rates (ECAR; indicating glycolysis rate) were monitored in a Seahorse XF24 instrument using the standard protocol of 3-min mix, 2-min wait and 3-min measure. Carbonyl cyanide-p-trifluoromethoxy-phenyl-hydrazon (FCCP; 2 μM) was used to determine the cells maximal respiratory capacity by allowing the electron transport chain to function at its maximal rate (maximal respiratory capacity is derived by subtracting non-mitochondrial respiration from the FCCP rate). Oligomycin (a complex V inhibitor; 2 μM) was used to derive ATP-linked respiration (by subtracting the oligomycin rate from baseline cellular OCR) and proton leak respiration (by subtracting non-mitochondrial respiration from the oligomycin rate). AntimycinA/Roteone (mitochondrial inhibitors; 0.5 μM) was used to determine non-mitochondrial respiration. For mechanistic experiments, cells were treated for 1 h with tetracaine (specific RyR inhibitor; 1 mM), 2,3-butanedione monoxime (BDM; myosin-ATPase inhibitor; […]) and nifedipine (L-type calcium channel inhibitor; 10 μM) were used. Data from wells of the same treatment group were averaged together and analyzed directly using Waves software. For the normalization of respiration to protein content, cells were lysed in RIPA buffer and protein concentration was measured by Bradford assay.

NOS1^−/− cardiomyocytes = assay: Seahorse bioanalyzer respiration, NOS1−/− cardiomyocytes; type: cell-based, mice; conditions: vs vehicle
Protocol: as §3

Sham or +BAT mice = assay: Oral gavage of sEH inhibitors in Sham or +BAT mice, in vivo cardiac hemodynamics; conditions: daily oral gavage 0.5 mg/kg for 2 weeks, starting 10 weeks after surgery
Protocol: Oral gavage of sEH inhibitors. C57BL/6 male mice (Charles River Laboratories) were fed a normal chow diet before and throughout the experiment. Sham and +BAT mice underwent daily oral gavage of sEH inhibitors beginning 10 weeks after the transplant or sham surgery. Mice underwent daily oral gavage with vehicle (Phosphate Buffer Saline [PBS]), or 25 mg/L AUDA in PBS (Cayman Chemicals #10007927), or 50 mg/L t-AUCB in PBS (Cayman Chemicals #16568). Mice were gavaged at 0.5 mg/kg daily for 14-16 days.
as §1, with “ADInstruments. […]” for “ADInstruments.”

[5] = incubation with RyR2 inhibitor tetracaine

For `CCCCC/C=C\CC(O)C(O)CCCCCCCC(=O)O` (stereo not drawn) [9,10-diHOME], the diastolic function [1] was “no effect” and the systolic function [1] was “no effect”.
With `CCCCC/C=C\C=C\C(O)CCCCCCCC(=O)O` (stereo not drawn) [9-HODE] the diastolic function [1] was “no effect” and the systolic function [1] was “no effect”.
With `CCCCCC(O)C(O)C/C=C\CCCCCCCC(=O)O` (stereo not drawn) [12,13-diHOME] the diastolic function [1] was “improved”, the systolic function [1] was “improved” and the diastolic function (NOS1^−/− mice) was “no effect”. For the same compound, the systolic function (NOS1^−/− mice) was “no effect”, the “Ca2+ transient amplitude” value (isolated cardiomyocytes [2]) was “increase” and the “maximal velocity of relengthening (−dL/dt)” value (isolated cardiomyocytes [2]) was “greater”. For the same compound, the “maximal velocity of shortening (+dL/dt)” value (isolated cardiomyocytes [2]) was “greater”, the peak cardiomyocyte shortening (isolated cardiomyocytes [2]) was “increased” and the “Ca2+ transients” value (NOS1^−/− cardiomyocyte) was “no effect”. The “kinetics (maximal velocity of shortening and relengthening)” value (NOS1^−/− cardiomyocyte) was “no effect”, the peak shortening (NOS1^−/− cardiomyocyte) was “no effect” and the fatty acid uptake [3] was “significantly elevated”. For the same compound, the “basal oxygen consumption rates (OCR)” value (isolated cardiomyocytes [4]; 10 μM for 1 h, vs vehicle) was “increased”, the maximal respiratory capacity (isolated cardiomyocytes [4]; 10 μM for 1 h, vs vehicle) was “increased” and the non-mitochondrial respiration (isolated cardiomyocytes [4]; 10 μM for 1 h, vs vehicle) was “increased”. The “basal OCR” value (isolated cardiomyocytes [4]; in the presence or absence of RyR2 inhibitor tetracaine) was “increased”, the “effect of 12,13-diHOME on maximal respiration” value (isolated cardiomyocytes [4]; [5]) was “blunted” and the “effect of 12,13-diHOME on non-mitochondrial respiration” value (isolated cardiomyocytes [4]; [5]) was “blunted”. The “effect of 12,13-diHOME on basal OCR under myosin inhibition” value (isolated cardiomyocytes [4]; with myosin inhibitor BDM) was “did not prevent”, the “effect of 12,13-diHOME on maximal respiration under myosin inhibition” value (isolated cardiomyocytes [4]; with myosin inhibitor BDM) was “did not prevent” and the “effect of 12,13-diHOME on non-mitochondrial respiration under myosin inhibition” value (isolated cardiomyocytes [4]; with myosin inhibitor BDM) was “prevented the increase”. The “basal oxygen consumption rates (OCR)” value (NOS1^−/− cardiomyocytes) was “no effect”, the maximal respiratory capacity (NOS1^−/− cardiomyocytes) was “no effect” and the non-mitochondrial respiration (NOS1^−/− cardiomyocytes) was “no effect”.
For `O=C(O)CCCCCCCCCCCNC(=O)NC12CC3CC(CC(C3)C1)C2` [AUDA], the “cardiac function (systolic and diastolic) of +BAT vs Sham mice in the presence of sEH inhibitor” value (Sham or +BAT mice) was “no effect of +BAT to improve cardiac function”.
With `CCCCNc1ccc(C(=O)OCCN(C)C)cc1` [tetracaine, reference compound] the maximal respiration (isolated cardiomyocytes [4]; tetracaine 1 mM for 1 h, independent of 12,13-diHOME) was “decrease”.
